Five molecules from patent US20230302133A1, “TARGETED PROTEIN DEGRADATION IN THERAPEUTIC CELLS” (The Regents of the University of California, priority 2020, published 2023) can be followed below.

Residues, ends and D or L forms follow the SMILES beside them. *: point of attachment. Cbz = O=C(OCc1ccccc1)*

The subject of assay [1] is CAR construct with SynZIP17 fused to its C-terminus. Nature of the assay: Degradation of CAR-SZ17 fusion in Jurkat cells. Format: cell-based. Conditions: degron directly fused to the CAR. The method, then: Next, the soluble STUD was used to target a membrane protein for degradation. The ability of the STUD to degrade a CAR in Jurkat cells was tested by generating a CAR construct with SynZIP17 fused to its C-terminus. However, while these STUDs worked to some extent, none of them were able to completely knockdown CAR expression (see FIG. 8).
Membrane targeting STUD: Membrane targeting cells were introduced by lentiviral transduction of two plasmids. […] Cells were then analyzed by flow cytometry. […] CAR and SynNotch expression was measured by antibody staining for a peptide tag fused to the extracellular domain of the CAR/SynNotch.

The target in another assay is GFP-SZ17 [GFP: P42212]. As to the kind of experiment: cell-based or functional assay.
Assay [2] relates to STUD degradation of GFP in Jurkat T cells. As to the kind of experiment: Inhibitor assay: rescue of GFP fluorescence in Jurkat T cells expressing STUD and GFP target. Format: cell-based. The conditions noted are these: 5 hours. On the procedure: Using the 2 plasmid system as described above, we lentivirally transduce Jurkat T cells. 72 hours after removal of lentivirus, we treat these Jurkat T cells and an untransduced control cell line with either 5 μM of the proteasomal inhibitor MG-132, 1 μM of the cullin ring ligase inhibitor MLN4924, 100 nM of the lysosomal inhibitor Bafilomycin Al, or DMSO vehicle control and incubate at 37 C for 5 hours. Using flow cytometry to measure GFP fluorescence following treatment, we observe that GFP fluorescence can indeed be rescued with MG-132 and MLN4924 when cells express both a functional STUD and a GFP target relative to DMSO vehicle control.
(§1) Inhibitor Assays: 100,000 cells were plated in a 96 well round bottom plate with either 5 μM MG-132 (Sigma-Aldrich #M7449-200UL), 1 μM MLN4924(Active Biochem #A-1139), 100 nM Bafilomycin A1(Enzo Life Sciences #BML-CM110-0100), or DMSO vehicle control and incubated at 37 C for 5 hours. After incubation, cells were pelleted by centrifugation at 400×g for 4 minutes. Supernatant was then removed and cells were washed once with 200 μL PBS. Cells were pelleted again (400×g for 4 minutes) and resuspended in flow buffer (PBS+2% FBS) for assay by flow cytometry.

The subject of the next assay is CD19BBz CAR. As to the kind of experiment: MLN4924 rescue of STUD knockdown of CD19BBz CAR expression in CD8+ primary T cells. In kind it is cell-based, human. Conditions: 1 μM MLN4924, 5 hours, 37 C. The method, then: Engineered CD8+T cells expressing were cocultured with NALM6 target cells and measured activation of the CAR by quantifying target cell lysis and expression of the T cell activation marker CD25.
as §1

A further assay has as its system NALM6 target cells. As to the kind of experiment: MLN dose response: ON switch CAR lysis of NALM6 target cells. In kind it is cell-based, human. The conditions noted are these: MLN4924 1 μM to 0.015625 μM, 72 hours, CD8+ T cells with antiCD19BBz CAR-SynZip and memSTUD. The method, then: CD8+primary human T cells were engineered with an antiCD19BBz CAR fused to a SynZip and a memSTUD that binds the SynZip using the same plasmids outlined in FIG. 14A by lentiviral transduction. As a control, we also lentivirally transduce CD8+primary human T cells with an antiCD19BBz and a SynZip memSTUD which cannot bind the CAR. These engineered cells and an untransduced control were cocultured with NALM6 target cells for 72 hours at 37 C in the presence of MLN4924 ranging from 1 μM to 0.015625 μM and a DMSO vehicle control. After coculture, target cell lysis was assayed by flow cytometry. Specific target cell lysis of each cell line relative to NALM6 cells cultured alone in the same conditions was then calculated.
100 μL containing media containing a 2×concentration of MLN4924 was added to each well of seeded cells. Cells with MLN4924 were incubated at 37 C for 72 hours. DMSO vehicle at the same concentration as the max MLN4924 concentration was added to cells as a control.

On to RRRG [Bonger degron], for which the “reduction of CAR expression” value in assay [1] is recorded as “over 90%”.
Consider “SynZIP18(K->R)-5xGS-RRRG (designed binder)”, for which, in the assay with GFP-SZ17 [GFP: P42212], the fold change of median normalized GFP fluorescence, flow cytometry, Jurkat T cells (STUD-induced degradation) stood at 42 fold.
On to `NS(=O)(=O)OC[C@@H]1C[C@@H](n2ccc3c(N[C@H]4CCc5ccccc54)ncnc32)C[C@@H]1O` [MLN4924], for which the “GFP fluorescence relative to DMSO vehicle control” value in assay [2] (1 μM MLN4924, 37 C, cells with functional STUD and GFP target) was “rescued”. Further, the “CAR expression after cullin inhibitor” value in the assay with CD19BBz CAR was “rescue”. For the same molecule, the “specific target cell lysis” value in the assay on NALM6 target cells is given as “dose dependent”.
As to `CC(C)C[C@@H](C=O)NC(=O)[C@H](CC(C)C)NC(=O)[C@H](CC(C)C)NC(=O)OCc1ccccc1` [MG-132] (Cbz-Leu-Leu-Leu-aldehyde), the “GFP fluorescence relative to DMSO vehicle control” value in assay [2] (5 μM MG-132, 37 C, cells with functional STUD and GFP target) is “rescued”.
As for bafilomycin, in assay [2] (100 nM Bafilomycin, 37 C), the “GFP fluorescence relative to DMSO vehicle control” value is “No changes”.
